Test results as given in patent publication US20080138463A1, “Lactobacillus buchneri strain LN5689 and its use to improve aerobic stability of silage” (Pioneer Hi-Bred International, Inc., priority 2006, published 2008).

Tests used:
[1] = Aerobic stability of grass silage (method of Honig); design: species or system ryegrass
Procedure: Second cut ryegrass was harvested at PLNC. The grass was determined to have an approximate dry matter of 35%.
Inoculation: Individual strains were supplied as fresh grown overnight culture. Cultures were adjusted to a standard concentration of 5.0×10^7 CFU/mL and applied using a syringe at a rate of 2.2 mL/kg of forage. The application rate for all strains was 1.1×10^5 CFU/g forage. Propionic acid (88%) was applied at a rate of 4.4 mL/kg fresh forage.
PVC Silos: PVC silos were filled at a packing density of 0.288 kg DM/silo (100 kg DM/m^3); approximately 0.82-0.95 kg/silo. Silos were air infused for 24 hours on days 28 and 42, and opened after 50-60 days of ensiling.
Aerobic Stability: The method of Honig (Proc. Of the Eurobac. Conf., P. Lingvall and S. Lindgren (ed.) (12-16 Aug. 1986) Swed. Univ. of Agric. Sci. Grass and Forage Report No. 3-1990. Pp. 76-81. Uppsala, Sweden.) was used for measuring aerobic stability (see Table 1). ROT is defined as the time, in hours, for the silage to heat 1.7° C. after exposure to air. Cumm_DD is the integral value of the area between the time ROT is attained and the end of the experiment. Aerobic dry matter loss (% dry matter) was determined relating the increase in temperature and the time to energy losses occurring in the silage.

[2] = pH of grass silage after ensiling; assay type: physicochemical, ryegrass; conditions: for pH: PVC silos
Procedure: Second cut ryegrass was harvested at PLNC. The grass was determined to have an approximate dry matter of 35%. Inoculation: Individual strains were supplied as fresh grown overnight culture. Cultures were adjusted to a standard concentration of 5.0×10^7 CFU/mL and applied using a syringe at a rate of 2.2 mL/kg of forage. The application rate for all strains was 1.1×10^5 CFU/g forage. Propionic acid (88%) was applied at a rate of 4.4 mL/kg fresh forage. PVC Silos: PVC silos were filled at a packing density of 0.288 kg DM/silo (100 kg DM/m^3); approximately 0.82-0.95 kg/silo. Silos were air infused for 24 hours on days 28 and 42, and opened after 50-60 days of ensiling.

[3] = average across replicate studies A, B, C

With CCC(=O)O [Propionic Acid, Propionic acid] the “Aerobic deterioration compared with control grass silages” value [1] was “significantly less aerobic deterioration than the control”, the “Improvement of aerobic stability over the control” value ([1]; LN5689 1.1×10^5 CFU/g forage, propionic acid (88%) 4.4 mL/kg) was 96 h and the “Aerobic Dry Matter Loss Avg.” value [1, 3] was 0.43 % dry matter. The “ROT Avg.” value [1, 3] was 127 h, the “Aerobic Dry Matter Loss” value ([1]; replicate study A) was 0.29 % dry matter and the “ROT (time for the silage to heat 1.7° C. after exposure to air)” value ([1]; replicate study A) was 137 h. For the same compound, the “Aerobic Dry Matter Loss” value ([1]; replicate study B) was 0 % dry matter, the “ROT (time for the silage to heat 1.7° C. after exposure to air)” value ([1]; replicate study B) was 160 h and the “Aerobic Dry Matter Loss” value ([1]; replicate study C) was 1.01 % dry matter. The “ROT (time for the silage to heat 1.7° C. after exposure to air)” value ([1]; replicate study C) was 86 h, the pH ([2]; replicate study A) was 4.03 and the pH ([2]; replicate study B) was 4.17. For the same compound, the pH ([2]; replicate study C) was 4.18 and the “pH Avg.” value [2, 3] was 4.13.
